Test: xn = mol fraction of the nth substance listed
Details: Gas, Buoyancy - hydrostatic balance with magnetic suspension - one sinker

[HH] [hydrogen] + N#N
Details	mass density [kg/m3]
274.99 K, 14000 kPa, x2 = 0.95	162.308
274.99 K, 14998 kPa, x2 = 0.5001	91.878
274.99 K, 15002 kPa, x2 = 0.95	173.076
274.99 K, 16011 kPa, x2 = 0.95	183.72
274.99 K, 17006 kPa, x2 = 0.95	194.006
275 K, 13999 kPa, x2 = 0.9	153.123
275 K, 15005 kPa, x2 = 0.9	163.298
275 K, 15997 kPa, x2 = 0.5001	97.397
275 K, 16004 kPa, x2 = 0.9	173.22
275 K, 17000 kPa, x2 = 0.5001	102.851
275 K, 17005 kPa, x2 = 0.9	182.969
275 K, 17996 kPa, x2 = 0.5001	108.187
275 K, 18001 kPa, x2 = 0.95	204.074
275 K, 18013 kPa, x2 = 0.9	192.591
275 K, 19000 kPa, x2 = 0.5001	113.476
275 K, 19012 kPa, x2 = 0.9	201.918
275 K, 19017 kPa, x2 = 0.95	214.131
275 K, 19574 kPa, x2 = 0.5001	116.461
275 K, 19891 kPa, x2 = 0.9	209.964
275 K, 20152 kPa, x2 = 0.95	225.084
299.93 K, 997 kPa, x2 = 0.95	10.683
299.93 K, 998 kPa, x2 = 0.9	10.171
299.93 K, 1999 kPa, x2 = 0.9	20.375
299.93 K, 2984 kPa, x2 = 0.9	30.399
299.93 K, 3997 kPa, x2 = 0.9	40.678
299.93 K, 4997 kPa, x2 = 0.9	50.784
299.93 K, 5997 kPa, x2 = 0.9	60.838
299.93 K, 6998 kPa, x2 = 0.9	70.842
299.93 K, 7998 kPa, x2 = 0.9	80.755
299.93 K, 8998 kPa, x2 = 0.9	90.589
299.93 K, 9998 kPa, x2 = 0.9	100.316
299.93 K, 10998 kPa, x2 = 0.9	109.939
299.93 K, 11999 kPa, x2 = 0.9	119.448
299.93 K, 12999 kPa, x2 = 0.9	128.823
299.93 K, 14000 kPa, x2 = 0.9	138.079
299.93 K, 14998 kPa, x2 = 0.9	147.162
299.93 K, 16001 kPa, x2 = 0.9	156.149
299.93 K, 17004 kPa, x2 = 0.9	164.981
299.93 K, 18004 kPa, x2 = 0.9	173.629
299.93 K, 19002 kPa, x2 = 0.9	182.11
299.93 K, 19557 kPa, x2 = 0.9	186.761
299.94 K, 998 kPa, x2 = 0.5001	5.984
299.94 K, 1998 kPa, x2 = 0.5001	11.937
299.94 K, 1998 kPa, x2 = 0.95	21.43
299.94 K, 2984 kPa, x2 = 0.95	32.013
299.94 K, 2999 kPa, x2 = 0.5001	17.846
299.94 K, 3997 kPa, x2 = 0.95	42.862
299.94 K, 3998 kPa, x2 = 0.5001	23.691
299.94 K, 4997 kPa, x2 = 0.95	53.549
299.94 K, 4998 kPa, x2 = 0.5001	29.485
299.94 K, 5998 kPa, x2 = 0.5001	35.223
299.94 K, 5998 kPa, x2 = 0.95	64.189
299.94 K, 6997 kPa, x2 = 0.5001	40.897
299.94 K, 6999 kPa, x2 = 0.95	74.769
299.94 K, 7997 kPa, x2 = 0.5001	46.51
299.94 K, 7999 kPa, x2 = 0.95	85.271
299.94 K, 8996 kPa, x2 = 0.5001	52.057
299.94 K, 9000 kPa, x2 = 0.95	95.695
299.94 K, 9998 kPa, x2 = 0.5001	57.555
299.94 K, 10000 kPa, x2 = 0.95	106.004
299.94 K, 10997 kPa, x2 = 0.5001	62.968
299.94 K, 10999 kPa, x2 = 0.95	116.189
299.94 K, 11998 kPa, x2 = 0.5001	68.317
299.94 K, 12000 kPa, x2 = 0.95	126.269
299.94 K, 12994 kPa, x2 = 0.5001	73.577
299.94 K, 13002 kPa, x2 = 0.95	136.232
299.94 K, 13996 kPa, x2 = 0.5001	78.8
299.94 K, 14000 kPa, x2 = 0.95	146.008
299.94 K, 14998 kPa, x2 = 0.5001	83.948
299.94 K, 14999 kPa, x2 = 0.95	155.65
299.94 K, 15992 kPa, x2 = 0.5001	88.984
299.94 K, 16000 kPa, x2 = 0.95	165.148
299.94 K, 16992 kPa, x2 = 0.5001	93.982
299.94 K, 17005 kPa, x2 = 0.95	174.51
299.94 K, 17997 kPa, x2 = 0.5001	98.934
299.94 K, 18000 kPa, x2 = 0.95	183.626
299.94 K, 18998 kPa, x2 = 0.5001	103.792
299.94 K, 19003 kPa, x2 = 0.95	192.638
299.94 K, 19854 kPa, x2 = 0.5001	107.886
299.94 K, 19889 kPa, x2 = 0.95	200.449
324.94 K, 12002 kPa, x2 = 0.95	115.15
324.94 K, 14997 kPa, x2 = 0.95	141.813
324.94 K, 15998 kPa, x2 = 0.95	150.466
324.94 K, 16993 kPa, x2 = 0.95	158.937
324.94 K, 17986 kPa, x2 = 0.95	167.256
324.94 K, 19001 kPa, x2 = 0.95	175.603
324.94 K, 19731 kPa, x2 = 0.9	171.908
324.94 K, 19880 kPa, x2 = 0.95	182.728
324.95 K, 998 kPa, x2 = 0.5001	5.527
324.95 K, 998 kPa, x2 = 0.9	9.371
324.95 K, 998 kPa, x2 = 0.95	9.855
324.95 K, 1998 kPa, x2 = 0.5001	11.018
324.95 K, 1998 kPa, x2 = 0.95	19.717
324.95 K, 1999 kPa, x2 = 0.9	18.75
324.95 K, 2983 kPa, x2 = 0.9	27.94
324.95 K, 2984 kPa, x2 = 0.95	29.414
324.95 K, 2996 kPa, x2 = 0.5001	16.446
324.95 K, 3997 kPa, x2 = 0.95	39.338
324.95 K, 3999 kPa, x2 = 0.5001	21.856
324.95 K, 3999 kPa, x2 = 0.9	37.374

— the NIST ThermoML archive (doi:10.1021/acs.jced.7b00694)
